# Data published in patent US10730874B2 (Shire Human Genetic Therapies, Inc., priority 2018, dated 2020).
# Molecular target: human activated kallikrein enzyme (plasma kallikrein) (Homo sapiens (Human), UniProt P03952)
# Assay: Inhibition of human activated plasma kallikrein, fluorogenic peptide substrate assay, 500 pM enzyme format
# Assay type: biochemical
# Conditions: 500 pM activated kallikrein enzyme, 300 uM Pro-Phe-Arg-7-amido-4-methylcoumarin substrate, 30 min preincubation, 10 min at RT; read-out: Primary Dose Response Assay: Average EC50
# Description: Example compounds were evaluated for inhibition of the human activated kallikrein enzyme in two formats of an assay employing a fluorogenic peptide substrate. In one assay format, the concentrations of reagents were as follows: 20 mM Tris pH 7.5, 1 mM EDTA, 150 mM sodium chloride, 0.1% PEG-400, 0.1% Triton X-100, 500 pM activated kallikrein enzyme, 300 uM Pro-Phe-Arg-7-amido-4-methylcoumarin substrate. Prior to reaction initiation with substrate, enzyme and inhibitors were preincubated for 30 min at RT. After initiation with substrate, reactions were incubated for 10 min at RT and fluorescence emission at 460 nm from 380 nm excitation measured with a microplate reader. In another assay format, the concentrations of reagents were as follows: 20 mM Tris pH 7.5, 1 mM EDTA, 150 mM sodium chloride, 0.1% PEG-400, 0.1% Triton X-100, 5 pM activated kallikrein enzyme, 300 uM Pro-Phe-Arg-7-amido-4-methylcoumarin substrate. Prior to reaction initiation with substrate, enzyme and inhibitors were preincubated for 30 min at RT. After initiation with substrate, reactions were incubated for 18 h at RT and fluorescence emission at 460 nm from 380 nm excitation measured with a microplate reader.
# Sequence of human activated kallikrein enzyme (plasma kallikrein) (P03952 391-638): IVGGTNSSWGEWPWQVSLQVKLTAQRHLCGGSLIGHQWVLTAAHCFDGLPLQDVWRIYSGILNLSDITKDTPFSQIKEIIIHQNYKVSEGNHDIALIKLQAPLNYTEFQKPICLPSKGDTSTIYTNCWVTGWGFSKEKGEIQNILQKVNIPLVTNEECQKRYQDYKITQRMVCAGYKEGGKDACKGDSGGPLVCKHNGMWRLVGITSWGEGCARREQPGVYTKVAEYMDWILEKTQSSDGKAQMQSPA
# Sequence of human activated kallikrein enzyme (plasma kallikrein) (P03952 20-390 partner): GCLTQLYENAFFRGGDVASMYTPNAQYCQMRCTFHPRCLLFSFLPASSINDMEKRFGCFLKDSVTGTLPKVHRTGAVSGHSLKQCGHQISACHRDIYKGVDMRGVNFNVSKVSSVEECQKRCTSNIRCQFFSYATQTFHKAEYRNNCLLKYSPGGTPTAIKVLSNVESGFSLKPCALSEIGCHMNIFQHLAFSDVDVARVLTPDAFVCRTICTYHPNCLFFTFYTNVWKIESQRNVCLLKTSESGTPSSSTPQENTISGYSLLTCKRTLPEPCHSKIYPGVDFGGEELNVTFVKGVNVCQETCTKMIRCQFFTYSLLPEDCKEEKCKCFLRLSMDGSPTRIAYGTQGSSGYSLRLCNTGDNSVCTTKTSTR
row,Compound,EC50 [nM]
1,"Cc1cccc2nc(Cn3cc(C(=O)NCc4ncn5ccc(Cl)cc45)cn3)cn12 [Example I-9, N-((7-chloroimidazo[1,5-a]pyridin-1-yl)methyl)-1-((5-methylimidazo[1,2-a]pyridin-2-yl)methyl)-1H-pyrazole-4-carboxamide]",10 to 100
2,"[2H]C([2H])(NC(=O)c1cnn(Cc2cn3cc(C4CC4)ccc3n2)c1)c1ncn2ccc(Cl)cc12 [Example I-90, N-((7-chloroimidazo[1,5-a]pyridin-1-yl)methyl-d2)-1-((6-cyclopropylimidazo[1,2-a]pyridin-2-yl)methyl)-1H-pyrazole-4-carboxamide]",< 1
3,"O=C(NCc1ncn2ccc(Cl)c(F)c12)c1cn(Cc2cn3cc(C4CC4)cc(-c4nn[nH]n4)c3n2)nn1 [Example I-174, N-((7-chloro-8-fluoroimidazo[1,5-a]pyridin-1-yl)methyl)-1-((6-cyclopropyl-8-(2H-tetrazol-5-yl)imidazo[1,2-a]pyridin-2-yl)methyl)-1H-1,2,3-triazole-4-carboxamide]",< 1
4,"CCOC(=O)CCc1cc(C2CC2)cn2cc(Cn3cc(C(=O)NCc4ncn5ccc(Cl)c(F)c45)nn3)nc12 [Example I-163a, ethyl 3-(2-((4-(((7-chloro-8-fluoroimidazo[1,5-a]pyridin-1-yl)methyl)carbamoyl)-1H-1,2,3-triazol-1-yl)methyl)-6-cyclopropylimidazo[1,2-a]pyridin-8-yl)propanoate]",< 1
5,"COC(=O)CCc1c(C(=O)NCc2ncn3ccc(Cl)cc23)cnn1Cc1cn2cc(C3CC3)ccc2n1 [Example I-82, methyl 3-(4-(((7-chloroimidazo[1,5-a]pyridin-1-yl)methyl)carbamoyl)-1-((6-cyclopropylimidazo[1,2-a]pyridin-2-yl)methyl)-1H-pyrazol-5-yl)propanoate]",10 to 100
6,"O=C(NCc1ncn2ccc(Cl)cc12)c1cnn(Cc2cn3cc(C4CC4)cc(CN4CCOCC4)c3n2)c1 [Example I-101, N-((7-chloroimidazo[1,5-a]pyridin-1-yl)methyl)-1-((6-cyclopropyl-8-(morpholinomethyl)imidazo[1,2-a]pyridin-2-yl)methyl)-1H-pyrazole-4-carboxamide]",< 1
7,"O=C(NCc1ncn2ccc(Br)cc12)c1cnn(Cc2cn3nc(C4CC4)ccc3n2)c1 [Example I-68, N-((7-bromoimidazo[1,5-a]pyridin-1-yl)methyl)-1-((6-cyclopropylimidazo[1,2-b]pyridazin-2-yl)methyl)-1H-pyrazole-4-carboxamide]",< 1
8,"CCOC(=O)Cc1cc(C2CC2)cn2cc(Cn3cc(C(=O)NCc4ncn5ccc(Br)c(F)c45)cn3)nc12 [Example I-105, ethyl 2-(2-((4-(((7-bromo-8-fluoroimidazo[1,5-a]pyridin-1-yl)methyl)carbamoyl)-1H-pyrazol-1-yl)methyl)-6-cyclopropylimidazo[1,2-a]pyridin-8-yl)acetate]",< 1
9,"COC(=O)Cn1c(Cn2cc(C(=O)NCc3ncn4ccc(Cl)c(F)c34)nn2)cc2cc(C3CC3)ccc21 [Example I-246, methyl 2-(2-((4-(((7-chloro-8-fluoroimidazo[1,5-a]pyridin-1-yl)methyl)carbamoyl)-1H-1,2,3-triazol-1-yl)methyl)-5-cyclopropyl-1H-indol-1-yl)acetate]",< 1
10,"N#CCCc1cc(C2CC2)cn2cc(Cn3cc(C(=O)NCc4ncn5ccc(Cl)cc45)nn3)nc12 [Example I-184, N-((7-chloroimidazo[1,5-a]pyridin-1-yl)methyl)-1-((8-(2-cyanoethyl)-6-cyclopropylimidazo[1,2-a]pyridin-2-yl)methyl)-1H-1,2,3-triazole-4-carboxamide]",< 1
11,"CC1(C)CC1c1ccn2cc(Cn3cc(C(=O)NCc4ncn5ccc(Br)cc45)cn3)nc2c1 (centres unmarked) [Example I-49, N-((7-bromoimidazo[1,5-a]pyridin-1-yl)methyl)-1-((7-(2,2-dimethylcyclopropyl)imidazo[1,2-a]pyridin-2-yl)methyl)-1H-pyrazole-4-carboxamide]",10 to 100
12,"Cc1nncn1-c1cc(C2CC2)cn2cc(Cn3cc(C(=O)NCc4ncn5ccc(Cl)c(F)c45)nn3)nc12 [Example I-249, N-((7-chloro-8-fluoroimidazo[1,5-a]pyridin-1-yl)methyl)-1-((6-cyclopropyl-8-(3-methyl-4H-1,2,4-triazol-4-yl)imidazo[1,2-a]pyridin-2-yl)methyl)-1H-1,2,3-triazole-4-carboxamide]",< 1
13,"O=C(NCc1ncn2ccc(Cl)c(F)c12)c1cn(Cc2cc3ccc(C4CC4)cc3s2)nn1 [Example I-229, N-((7-chloro-8-fluoroimidazo[1,5-a]pyridin-1-yl)methyl)-1-((6-cyclopropylbenzo[b]thiophen-2-yl)methyl)-1H-1,2,3-triazole-4-carboxamide]",10 to 100
14,"O=C(NCc1ncn2ccc(Cl)c(F)c12)c1cn(Cc2cc3cc(C4CC4)ccc3o2)nn1 [Example I-191, N-((7-chloro-8-fluoroimidazo[1,5-a]pyridin-1-yl)methyl)-1-((5-cyclopropylbenzofuran-2-yl)methyl)-1H-1,2,3-triazole-4-carboxamide]",1 to 10
15,"O=C(NCc1ncn2ccc(Br)cc12)c1cn(Cc2cn3cc(C4CC4)ccc3n2)nc1C(F)F [Example I-95, N-((7-bromoimidazo[1,5-a]pyridin-1-yl)methyl)-1-((6-cyclopropylimidazo[1,2-a]pyridin-2-yl)methyl)-3-(difluoromethyl)-1H-pyrazole-4-carboxamide]",1 to 10
16,"O=C(NCc1ncn2ccc(Cl)c(F)c12)c1cn(Cc2cn3cc(C4CC4)ccc3n2)cn1 [Example I-271, N-((7-chloro-8-fluoroimidazo[1,5-a]pyridin-1-yl)methyl)-1-((6-cyclopropylimidazo[1,2-a]pyridin-2-yl)methyl)-1H-imidazole-4-carboxamide]",< 1
17,"O=C(NCc1ncn2ccc(Cl)c(F)c12)c1cn(Cc2cc3ccc(Cl)cc3o2)nn1 [Example I-197, N-((7-chloro-8-fluoroimidazo[1,5-a]pyridin-1-yl)methyl)-1-((6-chlorobenzofuran-2-yl)methyl)-1H-1,2,3-triazole-4-carboxamide]",100 to 2000
18,"CC(NC(=O)c1cn(Cc2cn3cc(C4CC4)cc(C(O)C4COC4)c3n2)nn1)c1ncn2ccc(Cl)c(F)c12 (centres unmarked) [Example I-280, N-(1-(7-chloro-8-fluoroimidazo[1,5-a]pyridin-1-yl)ethyl)-1-((6-cyclopropyl-8-(hydroxy(oxetan-3-yl)methyl)imidazo[1,2-a]pyridin-2-yl)methyl)-1H-1,2,3-triazole-4-carboxamide]",10 to 100
19,"CC(NC(=O)c1cn(C(C)c2cn3cc(C4CC4)ccc3n2)nn1)c1ncn2ccc(Cl)c(F)c12 (centres unmarked) [Example I-278, N-(1-(7-chloro-8-fluoroimidazo[1,5-a]pyridin-1-yl)ethyl)-1-(1-(6-cyclopropylimidazo[1,2-a]pyridin-2-yl)ethyl)-1H-1,2,3-triazole-4-carboxamide]",100 to 2000
20,"O=C(NCc1ncn2ccc(Cl)c(F)c12)c1cn(Cc2cn3cc(C4CC4)cc(CNCC(O)C(F)(F)F)c3n2)nn1 (centres unmarked) [Example I-300, N-((7-chloro-8-fluoroimidazo[1,5-a]pyridin-1-yl)methyl)-1-((6-cyclopropyl-8-(((3,3,3-trifluoro-2-hydroxypropyl)amino)methyl)imidazo[1,2-a]pyridin-2-yl)methyl)-1H-1,2,3-triazole-4-carboxamide]",< 1
21,"O=C(NCc1ncn2ccc(Cl)cc12)c1nnc(Cc2cn3nc(C4CC4)ccc3n2)o1 [Example I-138, N-((7-chloroimidazo[1,5-a]pyridin-1-yl)methyl)-5-((6-cyclopropylimidazo[1,2-b]pyridazin-2-yl)methyl)-1,3,4-oxadiazole-2-carboxamide]",< 1
22,"O=C(NCc1ncn2ccc(Br)c(F)c12)c1nnc(Cc2cn3cc(C4CC4)ccc3n2)o1 [Example I-136, N-((7-bromo-8-fluoroimidazo[1,5-a]pyridin-1-yl)methyl)-5-((6-cyclopropylimidazo[1,2-a]pyridin-2-yl)methyl)-1,3,4-oxadiazole-2-carboxamide]",< 1
23,"O=C(O)COc1cc(C2CC2)cn2cc(Cn3cc(C(=O)NCc4ncn5ccc(Cl)c(F)c45)nn3)nc12 [Example I-208, 2-((2-((4-(((7-chloro-8-fluoroimidazo[1,5-a]pyridin-1-yl)methyl)carbamoyl)-1H-1,2,3-triazol-1-yl)methyl)-6-cyclopropylimidazo[1,2-a]pyridin-8-yl)oxy)acetic acid]",< 1
24,"O=C(NCc1ncn2ccc(Cl)c(F)c12)c1cn(Cc2cc3cc(C4CC4)ccc3[nH]2)nn1 [Example I-232, N-((7-chloro-8-fluoroimidazo[1,5-a]pyridin-1-yl)methyl)-1-((5-cyclopropyl-1H-indol-2-yl)methyl)-1H-1,2,3-triazole-4-carboxamide]",10 to 100
25,"O=C(NCc1ncn2ccc(Cl)c(F)c12)c1nnc(Cc2cn3cc(C4CC4)ccc3n2)o1 [Example I-137, N-((7-chloro-8-fluoroimidazo[1,5-a]pyridin-1-yl)methyl)-5-((6-cyclopropylimidazo[1,2-a]pyridin-2-yl)methyl)-1,3,4-oxadiazole-2-carboxamide]",< 1

# Same assay, conditions: comparative compounds (Table II); assay format with 500 pM (500 μM in the source) activated kallikrein; read-out: Primary Dose Response Assay: Average EC50
row,Compound,EC50 [nM]
1,COCc1nn(Cc2ccc(Cn3ccccc3=O)cc2)cc1C(=O)NCc1c(C#N)ccc(OC)c1F [reference compound],1 to 10
